Measurements from PMC8080595, “Discovery of a novel RORγ antagonist with skin-restricted exposure for topical treatment of mild to moderate psoriasis” (Scientific Reports, 2021).
Like-named read-outs stand apart in the source and are kept apart here.

What was measured:
RORγ LBD = target: T1, RORγ LBD (Homo sapiens, UniProt P51449); experiment: LanthaScreen TR-FRET human RORγ coactivator assay; assay type: biochemical; details: antagonist mode, read-out: Binding of RORγ LBD, IC50
T1 construct: The assay was performed with GST-tag RORγ LBD (25 ng/reaction, Creative Biomart); purchased Creative Biomart
T1 sequence (P51449 269-508 limits assumed): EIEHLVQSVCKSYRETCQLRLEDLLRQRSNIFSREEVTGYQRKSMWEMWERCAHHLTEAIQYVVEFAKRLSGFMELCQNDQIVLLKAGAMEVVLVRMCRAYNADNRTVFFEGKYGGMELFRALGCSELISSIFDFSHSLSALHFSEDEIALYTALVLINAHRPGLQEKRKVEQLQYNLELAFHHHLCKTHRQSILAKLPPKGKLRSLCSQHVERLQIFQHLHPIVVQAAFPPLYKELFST
From the text: In LanthaScreen TR-FRET RORγ coactivator assay, the RORγ LBD was constitutively active and the coactivator peptide (fluorescein-D22) was recruited in the absence of ligand, or compound (Fig. 2a). The binding of an antagonist to RORγ LBD causes a conformational change of the receptor, leading to a decrease in the affinity of the receptor for the coactivator peptide. The separation of the fluorescently labeled coactivator peptide from RORγ LBD from the receptor with the terbium-labeled antibody causes a decrease in the TR-FRET signal compared to those without compound. The assay was validated by detecting the ligand-independent recruitment of coactivator peptide in the presence or absence of RORγ LBD (2.5- to 3-fold assay window). Effects of the key compounds of the novel chemotype in Fig. 1, were tested in LanthaScreen TR-FRET RORγ coactivator assay.
The assay was performed with GST-tag RORγ LBD (25 ng/reaction, Creative Biomart), 0.6 μM Fluorescein-D22 coactivator peptide and 8 nM Tb anti-GST antibody (Invitrogen) at room temperature for 60 minutes. The fluorescent signals were measured with 520 nm emission and 495 nm excitation on Tecan Infinite. The data were calculated using DMSO control as 0% inhibition and non-protein control as 100% inhibition. IC50 values were calculated using non-linear regression analysis of GraphPad Prism in all assays.

[1] = Liver microsomal stability, human; assay type: in vitro ADME; details: pH 7.4
Experimental: (§1) The compound was mixed with 0.5 mg/ml human liver microsome (Thermal Fisher) at a final concentration of 1 µM in 100 mM potassium phosphate buffer, pH 7.4. The reactions were initiated by the addition of 1 mM NADPH. Samples in duplicate were incubated at 37 °C with mixing. 100 µL aliquots were transferred after 0, 5, 10, 30, 45, 60 minutes to a new tube with 300 µL acetonitrile, incubated on ice for 30 minutes, centrifuged at 1800×g at 4 °C for 10 minutes. The supernatants were transferred to glass vials subjected to LC/MS analysis. Peak areas were measured to calculate half-life according to the formula t1/2 = − 0.693/slope of linear regression analysis of ln [concentration] versus incubation time. Similar methods were applied to access mouse and rat liver microsomal stability of the compounds.

[2] = Liver microsomal stability, rat; assay type: in vitro ADME; details: liver microsomes, pH 7.4, read-out: Liver microsomal stability, t1/2, Rat
Experimental: as §1

[3] = tested on: IL-17 secretion from human PBMCs; experiment: Human IL-17 production assay using human PBMC; assay type: cell-based; details: cytostim stimulation 72 h
Experimental: To confirm cellular on-target effects, we investigated the inhibition of selected RORγ antagonists on RORγ-regulated IL-17 secretion using human PBMC. Human IL-17-producing cells were readily formed following cytostim stimulation. In human PBMC stimulated with cytostim for 72 h, differentiation of Th17 cells was confirmed by increased secretion of IL-17 (291 pg/mL) in cell culture supernatant compared to basal level of IL-17 (20 pg/mL IL-17 without cytostim stimulation), […] of IL-17 secretion.
Human PBMCs (Zenbio) in TexMACS media were stimulated by cytostim (Miltenyi) for 72 h following the vendor's instruction. Human IL-17A in cell culture supernatant was measured using AlphaLISA human IL-17A Biotin-free detection kit (Perkin Elmer) according to the manufacturer’s protocol.

Oral PK in SD rats = assay type: in vivo; details: male, rat, plasma; for AUC: read-out: Exposure in SD Rat, AUC; for Cmax: read-out: Exposure in SD Rat, Cmax; for half-life: read-out: Exposure in SD Rat, t1/2 (converted)
Experimental: Compounds were dissolved in 5% DMSO, 5% tween 80 and then added 90% saline. Male SD rats were dosed with the compound via oral (2 mg/kg or 5 mg/kg) routes, respectively after fasting overnight. Blood of the animals were collected at indicated time post dosing. Blood samples were then prepared for plasma and analyzed for the compounds using validated LC/MS assays. The experimental protocol used in this study was approved by IACUC. The experiments were conducted in accordance with the Guiding Principles for the Care and Use of Laboratory Animals and complied with the ARRIVE guidelines.

[4] = Liver microsomal stability, mouse; assay type: in vitro ADME; details: liver microsomes, pH 7.4, read-out: Liver microsomal stability, t1/2, Mouse
Experimental: as §1

psoriasis [5] = tested on: psoriasis; parameters: method as in PMID 29150844; details: ointment 0.03%, 0.1%, 0.8% and 4%, all doses; cited from earlier work
[6] = tested on: IMQ-induced mouse psoriasis-like inflammation model; parameters: method as in PMID 26870941; details: 1% GSK2981278 ointment vs placebo + IMQ control; cited from earlier work
psoriasis [7] = tested on: psoriasis; parameters: method as in PMID 27852111; details: oral, phase 2a, cited from earlier work
[8] = human, liver microsomes, 1 µM compound, 0.5 mg/ml microsome, NADPH, 37 °C, read-out: Liver microsomal stability, t1/2, Human

CCS(=O)(=O)c1ccc(Cc2nc3c(Cl)c(-c4ccccc4OC(F)(F)F)c(Cl)cc3[nH]2)c(Cl)c1 [Compound 1, 4,6-dichloro-2-(2-chloro-4-(ethylsulfonyl)benzyl)-5-(2-(trifluoromethoxy)phenyl)-1H-benzo[d]imidazole] gave an IC50 (RORγ LBD) of 62 ± 18 nM, a half-life at 1 µM [1, 8] of over 120 min and a half-life at 1 µM [2] of over 120 min. The EC50 [3] was 30 ± 10 nM, the AUC (Oral PK in SD rats; 5 mg/kg oral) was 6980 ng·h/mL and the Cmax (Oral PK in SD rats; 5 mg/kg oral) was 446 ng/mL. It also gave a half-life (Oral PK in SD rats; 5 mg/kg oral) of 768 min.

In the case of CCS(=O)(=O)c1ccc(Cc2nc3c(Cl)c(N4CCC(F)(F)CC4)c(Cl)cc3[nH]2)cc1 [Compound 2, 4,6-dichloro-5-(4,4-difluoropiperidin-1-yl)-2-(4-(ethylsulfonyl)benzyl)-1H-benzo[d]imidazole], the IC50 (RORγ LBD) is reported as 40 ± 27 nM, the half-life at 1 µM [1, 8] is reported as 18.5 min and the half-life at 1 µM ([1]; range across human, rat and mouse liver microsomes, read-out: t1/2 in human, rat and mouse liver microsome stability assays) is reported as 7.8 to 34.5 min. The half-life at 1 µM [4] was 7.8 min, the half-life at 1 µM [2] was 34.5 min and the EC50 [3] was 46 ± 2 nM. The AUC (Oral PK in SD rats; 2 mg/kg oral) was 352 ng·h/mL, the Cmax (Oral PK in SD rats; 2 mg/kg oral) was 70 ng/mL and the half-life (Oral PK in SD rats; 2 mg/kg oral) was 120 min.

In the case of CCc1ccc(N(CC(C)C)S(=O)(=O)c2ccc(OCC3CCOCC3)c(CO)c2)cc1 [GSK2981278], the Infiltrate thickness (psoriasis [5]) is listed as “not changed” and the “reduction of epithermal thickness” value [6] is listed as 23%.

In the case of CCS(=O)(=O)c1ccc(CNC(=O)c2cnc3c(c2)CN(C[C@H]2CC[C@H](C(F)(F)F)CC2)[C@H]3C(C)C)nc1 [VTP43742], the “efficacy in psoriatic patients” value (psoriasis [7]; four-week period) is listed as “clear signal of efficacy” and the transaminase (psoriasis [7]) is listed as “elevations of reversible transaminase”.
